This data set can be described thus: Dynamic vapor sorption (DVS) moisture sorption isotherm. It is filed as physicochemical. The note with it: reversible; from 0 to 90% RH; 25° C. On the procedure:
The crystalline Form I provided can be additionally characterized by dynamic vapor sorption (DVS), wherein a sample is subjected to varying conditions of humidity and temperature, and the response of the sample is measured gravimetrically. The result of a DVS analysis particularly can be a dual curve providing sample weight percent as a function of relative humidity (RH) over time, a dual curve providing sample water content as a function of RH over time, a curve providing weight percent in relation to RH, or a curve providing water content in relation to RH. Equipment useful for measuring such data is known in the art, and any such equipment can be used to measure the compounds according to the present disclosure. In certain embodiments, DVS analysis can be carried out by scanning at a series of specific RH values. […]
Sorption isotherms were obtained using a SMS DVS Intrinsic moisture sorption analyser, controlled by DVS Intrinsic Control software v1.0.1.2 (or v 1.0.1.3). […] The relative humidity (RH) was measured by a calibrated Rotronic probe (dynamic range of 1.0-100% RH), located near the sample. The weight change, (mass relaxation) of the sample as a function of % RH was constantly monitored by the microbalance (accuracy±0.005 mg). […]
The sample was recovered after completion of the isotherm and re-analyzed by XRPD.

The structures appear in SMILES notation.

On to `NC(=O)/C(=C/n1cnc(-c2cc(C(F)(F)F)cc(C(F)(F)F)c2)n1)c1cncnc1` [Crystalline Form I, (E)-3-(3-(3,5-bis(trifluoromethyl)phenyl)-1H-1,2,4-triazol-1-yl)-2-(pyrimidin-5-yl)acrylamide], for which the “water adsorption (dynamic vapor sorption)” value stood at 0.12 % w/w.

For the origin of these results see patent US12673939B2, “Methods of synthesis of heteroaryl derivatives of triazolyl acrylamides and crystalline forms” (Karyopharm Therapeutics Inc., priority 2021, dated 2026).
